Source: patent publication US20250002450A1, “CATIONIC STEROID COMPOUNDS, METHOD OF OBTAINING THEREOF, FORMULATIONS COMPRISING THEREOF AND THEIR USES” (UNIVERSIDADE DO PORTO, priority 2021, published 2025)
In brackets after ≈: the same amount, converted by molar mass.

Key:
Experiment in all cases: Antibacterial MIC/MBC (broth microdilution)
[1] = test system: S. aureus 66/1 (MRSA); format: cell-based, Staphylococcus aureus; conditions: Staphylococcus aureus; for MBC: read-out: MBC; for MIC: read-out: MIC
Source text: (§1) Twelve reference bacterial strains and nine MDR clinically relevant bacterial strains were used in this study. Gram-negative bacteria comprised reference strains E. coli ATCC 25922, K. pneumoniae ATCC 13883, Salmonella enterica serovar Typhimurium CECT 443, P. aeruginosa ATCC 27853, A. baumannii ATCC 19606, C. jejuni ATCC 33560 (ATCC—American Type Culture Collection; CECT—Colección Espanola de Cultivos Tipo); clinical isolates E. coli SA/2, an extended-spectrum β-lactamase (ESBL)-producing strain and P. aeruginosa 33b, a pan-drug-resistant isolate; and animal isolates C. jejuni P5/4, a ciprofloxacin-resistant strain, C. jejuni 4432, C. jejuni 4433, C. jejuni 4448, and E. coli 2252, a COL-resistant strain [42]. Gram-positive strains included S. aureus ATCC 29213, E. faecalis ATCC 29212, S. pyogenes ATCC 19615, and environmental isolates methicillin-resistant S. aureus (MRSA) 66/1 [43], and VAN-resistant enterococci (VRE) E. faecalis B3/101 [44]. Gram-negative fish pathogens Yersinia ruckeri ATCC 29473, Listonella anguillarum ATCC 1924, and Tenacibaculum maritimum ATCC 43397 were also included.
(§2) Strains were kept in Trypto-Casein Soy agar (TSA—Biokar Diagnostics, Allone, Beauvais, France) slants and, before each assay, were sub-cultured in Mueller-Hinton agar (MHA—Biokar Diagnostics, Allone, Beauvais, France). Y. ruckeri ATCC 29473 and L. anguillarum ATCC 1924 were kept in Nutrient Agar (Condalab, Madrid, Spain) and T. maritimum ATCC 43397 was kept in TMM agar (Condalab, Madrid, Spain), and were sub-cultured in the respective culture media before each assay. For S. pyogenes ATCC 19615, CAMHB was supplemented with 3.75% lysed horse blood (LBH—Oxoid, Basingstoke, England), whereas for C. jejuni it was supplemented with 2.5% LHB. Colony-forming unit counts of the inoculum were conducted to determine the initial inoculum size (which should be approximately 5×10^5 CFU/mL). Sterility and growth controls were included in each assay. The 96-well U-shaped untreated polystyrene microtiter plates were incubated for 20 h at 37 degrees C. (42 degrees C. for C. jejuni, in a microaerophilic atmosphere) and the minimal inhibitory concentration (MIC) was determined as the lowest concentration of compound that prevented visible growth. The minimal bactericidal concentration (MBC) was determined by spreading 100 μL of the content of the wells with no visible growth on MH plates. The MBC was determined as the lowest concentration of compound that killed 99.9% of the initial inoculum after overnight incubation at 37 degrees C. Two independent assays were performed for reference and MDR strains.
(§3) An initial screening of the antibacterial activity of the compounds was performed by the Kirby-Bauer disk diffusion method, as recommended by the Clinical and Laboratory Standards Institute (CLSI). Briefly, sterile 6 mm blank paper disks (Oxoid, Basingstoke, England) impregnated with 15 μg of each compound were placed on inoculated MH agar plates. A blank disk with dimethylsulfoxide (DMSO) was used as a negative control. MH inoculated plates were incubated for 18-20 h at 37 degrees C. At the end of incubation, the inhibition halos where measured. The MIC was used to determine the antibacterial activity of each compound, in accordance with the recommendations of the CLSI. Two-fold serial dilutions of the compounds were prepared in Mueller-Hinton Broth 2 (MHB2—Sigma-Aldrich, St. Louis, MO, USA) within the concentration range of 0.062-64 μg/mL. CTX ranging between 0.031-16 μg/mL was used as a control. Sterility and growth controls were included in each assay. Purity checks and colony counts of the inoculum suspensions were also performed in order to ensure that the final inoculum density closely approximates the intended number (5×10^5 CFU/mL). The MIC was determined as the lowest concentration of compound that inhibited growth of the bacteria. The MBC was assessed by spreading 10 μL of culture collected from wells showing no visible growth on MH agar plates. […]

[2] = test system: Streptococcuss pyogenes ATCC 19615; format: cell-based, Streptococcus pyogenes; conditions: Streptococcus pyogenes, ATCC19615, Streptococcuss pyogenes ATCC 19615; for MBC: read-out: MBC; for MIC: read-out: MIC
Source text: as §1, §2, §3

[3] = test system: C. jejuni P5/4; format: cell-based, Campylobacter jejuni; conditions: Campylobacter jejuni; for MBC: read-out: MBC; for MIC: read-out: MIC
Source text: as §1, §2, §3

[4] = test system: C. jejuni 4432; format: cell-based, Campylobacter jejuni; conditions: Campylobacter jejuni; for MBC: read-out: MBC; for MIC: read-out: MIC
Source text: as §1, §2, §3

[5] = test system: C. jejuni 4448; format: cell-based, Campylobacter jejuni; conditions: Campylobacter jejuni; for MBC: read-out: MBC; for MIC: read-out: MIC
Source text: as §1, §2, §3

[6] = test system: C. jejuni 4433; format: cell-based, Campylobacter jejuni; conditions: Campylobacter jejuni; for MBC: read-out: MBC; for MIC: read-out: MIC
Source text: as §1, §2, §3

[7] = test system: Staphylococcus aureus ATCC 29213; format: cell-based; conditions: for MBC: ATCC29213, read-out: MBC; for MIC: ATCC29213, read-out: MIC
In short: (§4)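 Visible growth inhibition after 20 h at 37 degrees C defines the MIC, with compounds tested at 0.062-64 μg/mL in Mueller-Hinton broth 2 against about 5×10^5 CFU/mL. Bactericidal endpoint: 99.9% reduction of the starting inoculum on MH agar subculture.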

[8] = test system: Campylobacter jejuni ATCC 33560; format: cell-based; conditions: ATCC33560, Campylobacter jejuni ATCC 33560; for MBC: read-out: MBC; for MIC: read-out: MIC
[9] = test system: Listonella anguilarum ATCC 1924; format: cell-based; conditions: for MBC / MIC: Listonella anguilarum ATCC 1924; for MBC: read-out: MBC; for MIC: read-out: MIC
In short: as §4

[10] = test system: Klebsiella pneumoniae ATCC 13883; format: cell-based; conditions: ATCC13883, Klebsiella pneumoniae ATCC 13883; for MBC: read-out: MBC; for MIC: read-out: MIC
In short: as §4

[11] = test system: Pseudomonas aeruginosa ATCC 27853; format: cell-based; conditions: ATCC27853, Pseudomonas aeruginosa ATCC 27853; for MBC: read-out: MBC; for MIC: read-out: MIC
In short: as §4

[12] = test system: Salmonella enterica serovar Typhimurium CECT 443; format: cell-based; conditions: for MBC: read-out: MBC; for MIC: read-out: MIC
In short: as §4

[13] = test system: Acinetobacter baumannii ATCC 19606; format: cell-based; conditions: for MBC / MIC: ATCC19606, Acinetobacter baumannii ATCC 19606; for MBC: read-out: MBC; for MIC: read-out: MIC
In short: as §4

[14] = test system: Escherichia coli ATCC 25922; format: cell-based; conditions: ATCC25922, Escherichia coli ATCC 25922; for MBC: read-out: MBC; for MIC: read-out: MIC
In short: as §4

[15] = test system: Yersinia ruckeri ATCC 29473; format: cell-based; conditions: for MBC: ATCC29473, read-out: MBC; for MIC: ATCC29473, read-out: MIC
In short: as §4

[16] = test system: E. coli 2252 (COL-resistant); format: cell-based, Escherichia coli; conditions: Escherichia coli, E. coli 2252 (COL-resistant); for MBC: read-out: MBC; for MIC: read-out: MIC
Source text: as §1, §2, §3

SMILES | MBC [1] | MIC [1] | MBC [2] | MIC [2] | MBC [3] | MIC [3] | MBC [4] | MIC [4] | MBC [5] | MIC [5] | MBC [6] | MIC [6] | MBC [7] | MIC [7] | MBC [8] | MIC [8] | MBC [9] | MIC [9] | MBC [10] | MIC [10] | also measured
CCN(CC)CCNC(=O)CC[C@@H](C)[C@H]1CC[C@H]2[C@@H]3CC[C@@H]4C[C@H](O)CC[C@]4(C)[C@H]3C[C@H](O)[C@]12C [Compound 6, (R)—N-(2-(diethylamino)ethyl)-4-((3R,5R,8R,9S,10S,12S,13R,14S,17R)-3,12-dihydroxy-10,13-dimethylhexadecahydro-1H-cyclopenta[a]phenanthren-17-yl)pentanamide] | 64 µg/mL (≈ 130 µM) | 64 µg/mL (≈ 130 µM) | > 64 µg/mL | > 64 µg/mL | > 64 µg/mL | > 64 µg/mL | > 64 µg/mL | > 64 µg/mL | > 64 µg/mL | > 64 µg/mL | > 64 µg/mL | > 64 µg/mL | 64 µg/mL (≈ 130 µM) | 64 µg/mL (≈ 130 µM) | > 64 µg/mL | > 64 µg/mL | 64 µg/mL (≈ 130 µM) | 64 µg/mL (≈ 130 µM) | > 64 µg/mL | > 64 µg/mL | antibacterial activity (in words) ([9]; Listonella anguilarum): active; MBC [11]: > 64 µg/mL; MIC [11]: > 64 µg/mL; MBC [12]: > 64 µg/mL; MIC [12]: > 64 µg/mL; antibacterial activity (in words) ([13]; A. baumannii ATCC 19606): displayed an inhibitory effect; MBC [13]: 64 µg/mL (≈ 130 µM); MIC [13]: 64 µg/mL (≈ 130 µM); MBC [14]: > 64 µg/mL; MIC [14]: 64 µg/mL (≈ 130 µM); MBC [15]: > 64 µg/mL; MIC [15]: > 64 µg/mL; MBC [16]: > 64 µg/mL; MIC [16]: > 64 µg/mL
C[C@H](CCC(=O)NCCNc1ccccc1)[C@H]1CC[C@H]2[C@@H]3CC[C@@H]4C[C@H](O)CC[C@]4(C)[C@H]3C[C@H](O)[C@]12C [Compound 8, (R)-4-((3R,5R,8R,9S,10S,12S,13R,14S,17R)-3,12-dihydroxy-10,13-dimethylhexadecahydro-1H-cyclopenta[a]phenanthren-17-yl)-N-(2-(phenylamino)ethyl)pentanamide] | > 64 µg/mL | > 64 µg/mL | > 64 µg/mL | > 64 µg/mL | > 64 µg/mL | > 64 µg/mL | > 64 µg/mL | > 64 µg/mL | > 64 µg/mL | > 64 µg/mL | > 64 µg/mL | > 64 µg/mL | > 64 µg/mL | 16 µg/mL (≈ 31.3 µM) | > 64 µg/mL | > 64 µg/mL | > 64 µg/mL | > 64 µg/mL | > 64 µg/mL | > 64 µg/mL | MBC [11]: > 64 µg/mL; MIC [11]: > 64 µg/mL; MBC [12]: > 64 µg/mL; MIC [12]: > 64 µg/mL; MBC [13]: > 64 µg/mL; MIC [13]: > 64 µg/mL; MBC [14]: > 64 µg/mL; MIC [14]: > 64 µg/mL; MBC [15]: > 64 µg/mL; MIC [15]: > 64 µg/mL; MBC [16]: > 64 µg/mL; MIC [16]: > 64 µg/mL
C[C@H](CCC(=O)N1CCOCC1)[C@H]1CC[C@H]2[C@@H]3CC[C@@H]4C[C@H](O)CC[C@]4(C)[C@H]3C[C@H](O)[C@]12C [Compound 3, (R)-4-((3R,5R,8R,9S,10S,12S,13R,14S,17R)-3,12-dihydroxy-10,13-dimethylhexadecahydro-1H-cyclopenta[a]phenanthren-17-yl)-1-morpholinopentan-1-one] | > 64 µg/mL | > 64 µg/mL | > 64 µg/mL | > 64 µg/mL | > 64 µg/mL | > 64 µg/mL | > 64 µg/mL | > 64 µg/mL | > 64 µg/mL | > 64 µg/mL | > 64 µg/mL | > 64 µg/mL | > 64 µg/mL | > 64 µg/mL | > 64 µg/mL | > 64 µg/mL | > 64 µg/mL | > 64 µg/mL | > 64 µg/mL | > 64 µg/mL | MBC [11]: > 64 µg/mL; MIC [11]: > 64 µg/mL; MBC [12]: > 64 µg/mL; MIC [12]: > 64 µg/mL; MBC [13]: > 64 µg/mL; MIC [13]: > 64 µg/mL; MBC [14]: > 64 µg/mL; MIC [14]: > 64 µg/mL; MBC [15]: > 64 µg/mL; MIC [15]: > 64 µg/mL; MBC [16]: > 64 µg/mL; MIC [16]: > 64 µg/mL
